Results taken from patent US9296704B2, “Substituted pyrimidines as protein kinase inhibitors” (CELGENE AVILOMICS RESEARCH, INC., priority 2007, dated 2016).

Key:
[1] = biological target: T1, EGFR wild type (Homo sapiens, UniProt P00533); experiment: Mass spectrometry for EGFR wild type (covalent modification); format: binding; details: 10-fold excess of compound, 1 hr and 3 hrs, MALDI
T1 construct: Amino acids 696 to 1022 of the EGFR-WT kinase domain; six-histidine tag (TEV-cleavable) (C); made in house; host or cells: SF21 insect cells (baculovirus; P1 stocks in SF9)
Method: (§1) Amino acids 696 to 1022 of the EGFR-WT kinase domain (NM_005228, NP_005219.2) was subcloned into the NcoI and HindIII sites of the pFastHTa vector (Invitrogen, Carlsbad, Calif.). To make the EGFR-mutant protein, the cysteine at position 797 was changed to a serine using the Stratagene QuikChange kit (Stratagene, Cedar Creek, Tex.), according to manufacturer's instructions.
(§2) EGFR wild type and EGFR mutant (C797S) was incubated with 10-fold excess of compound I-1 for 1 hr and 3 hrs. 1 ul aliquots of the samples (total volume 5-8 ul) were diluted with 10 ul of 0.1% TFA prior to micro C4 ZipTipping directly onto the MALDI target using Sinapinic acid as the desorption matrix (10 mg/ml in 0.1% TFA:Acetonitrile 50:50). […] (See FIG. 8).

[2] = biological target: T2, ErbB4 kinase domain (Homo sapiens, UniProt Q15303); experiment: Mass spectrometry for ErbB4 (covalent modification); format: binding; details: 10-fold excess of compound, 90 minutes, MALDI
T2 construct: ErbB4 kinase domain (Upstate) was incubated with compound; purchased Upstate
Method: ErbB4 kinase domain (Upstate) was incubated with compound for 90 minutes at 10-fold excess of compound I-1 to protein. 1 ul aliquots of the samples (total volume of 4.24 ul) were diluted with 10 ul of 0.1% TFA prior to micro C4 ZipTipping directly onto the MALDI target using Sinapinic acid as the desorption matrix (10 mg/ml in 0.1% TFA:Acetonitrile 50:50). For intact protein mass measurement the instrument was set in Linear mode using a pulsed extraction setting of 16,952 for the myoglobin standard used to calibrate the instrument
Intact ErbB4 protein occurs at MH+ of 35850 with corresponding sinapinic (matrix) adducts occurring about 200 Da higher. A stochiometric incorporation of the compound I-1 (Mw of 410 Da) produced a new mass peak which is approximately 410 Da higher (MH+ of 36260).

[3] = biological target: T3, EGFR mutant (C797S) (Homo sapiens, UniProt P00533, C797S); experiment: Mass spectrometry for EGFR mutant (C797S); format: binding; details: 10-fold excess of compound, up to 3 hrs, MALDI
T3 construct: Amino acids 696 to 1022 of the EGFR-WT kinase domain; six-histidine tag (TEV-cleavable) (C); made in house; host or cells: SF21 insect cells (baculovirus; P1 stocks in SF9)
Method: as §1, §2

[4] = biological target: ErbB4 (Homo sapiens, UniProt Q15303); experiment: Z'-LYTE biochemical assay, ErbB4 kinase inhibition
Method: Compounds of the present invention were assayed as inhibitors of one or more of ErbB1, ErbB2, and/or ErbB4 in a manner substantially similar to the method described by Invitrogen Corp (Invitrogen Corporation, 1600 Faraday Avenue, Carlsbad, Calif., CA; http://www.invitrogen.com/downloads/Z-LYTE_Brochure—1205.pdf) using the Z′-LYTE™ biochemical assay procedure or similar biochemical assay. The Z′-LYTE™ biochemical assay employs a fluorescence-based, coupled-enzyme format and is based on the differential sensitivity of phosphorylated and non-phosphorylated peptides to proteolytic cleavage.

[5] = system: EGFR (ErbB1) in A431 human epidermoid carcinoma cells; experiment: Washout experiment for EGFR activity in A431 cells; format: cell-based
Method: A431 human epidermoid carcinoma cells were grown in 6-well plates to 90% confluence and then incubated in serum-free media for 18 hr. Duplicate sets of cells were treated with 1 μM designated compound for 1 hr. One set of cells was then stimulated with 100 ng/ml EGF for 5 min, and extracts were made as described. The other set of cells was washed free of the compound with warmed compound-free medium, incubated for 2 hr, washed again, incubated another 2 hr, washed again, and then incubated another 2 hr washed again and incubated for additional 2 hr and then stimulated with EGF.

[6] = biological target: T4, TEC kinase (Homo sapiens, UniProt P42680); experiment: Mass spectrometry for TEC kinase (tryptic digest); format: binding, homo sapien; details: 10× excess, 3 hrs, MALDI
T4 construct: purchased Invitrogen
T4 sequence (P42680 1-631): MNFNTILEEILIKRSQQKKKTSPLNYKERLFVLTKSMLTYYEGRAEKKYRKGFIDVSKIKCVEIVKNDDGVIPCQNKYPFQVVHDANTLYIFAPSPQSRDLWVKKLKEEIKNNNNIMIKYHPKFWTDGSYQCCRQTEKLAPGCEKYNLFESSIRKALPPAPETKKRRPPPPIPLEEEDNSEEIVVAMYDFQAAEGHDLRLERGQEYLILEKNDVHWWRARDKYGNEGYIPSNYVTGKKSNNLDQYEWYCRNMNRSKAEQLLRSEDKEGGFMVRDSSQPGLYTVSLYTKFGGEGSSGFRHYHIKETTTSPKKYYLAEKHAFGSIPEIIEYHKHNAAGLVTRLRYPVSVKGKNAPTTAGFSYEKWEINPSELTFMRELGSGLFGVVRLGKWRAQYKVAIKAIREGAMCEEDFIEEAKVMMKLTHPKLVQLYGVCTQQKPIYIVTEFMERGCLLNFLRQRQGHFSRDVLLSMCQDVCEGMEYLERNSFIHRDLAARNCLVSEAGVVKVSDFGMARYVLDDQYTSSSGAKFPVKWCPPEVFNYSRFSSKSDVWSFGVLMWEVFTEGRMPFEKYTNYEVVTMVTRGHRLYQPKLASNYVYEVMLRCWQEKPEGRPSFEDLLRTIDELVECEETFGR
Method: TEC kinase (45 pmols; Invitrogen) was incubated with (I-13) (450 pmols) for 3 hrs at 10× access prior to tryptic digestion. Iodoacetamide was used as the alkylating agent after compound incubation. […] For tryptic digests a 5 ul aliquot (7.5 pmols) was diluted with 15 ul of 0.1% TFA prior to micro C18 Zip Tipping directly onto the MALDI target using alpha cyano-4-hydroxy cinnamic acid as the matrix (5 mg/ml in 0.1% TFA:Acetonitrile 50:50).
As depicted in FIG. 11, the expected peptide (GCLLNFLR) to be modified was immediately evident at MH+ of 1358.65. This is the mass to be expected when compound I-13, with an adduct mass of 423.17, is added to the peptide mass of 935.51. The peptide was also quite evident in the control sample as modified by Iodacetamide at MH+ of 992.56. […] There was no evidence of any other modified peptides.
To further verify the presence of the modified peptide with compound I-13, the peptide at MH+ of 1358.65 was subjected to PSD (MS/MS) analysis. A correlational analysis with the homo sapien database identified the correct peptide modified by I-13.
For tryptic digests the instrument was set in Reflectron mode with a pulsed extraction setting of 2200. Calibration was done using the Laser Biolabs Pep Mix standard (1046.54, 1296.69, 1672.92, 2093.09, 2465.20). […]

Chain of ErbB4 (Q15303 26-1308): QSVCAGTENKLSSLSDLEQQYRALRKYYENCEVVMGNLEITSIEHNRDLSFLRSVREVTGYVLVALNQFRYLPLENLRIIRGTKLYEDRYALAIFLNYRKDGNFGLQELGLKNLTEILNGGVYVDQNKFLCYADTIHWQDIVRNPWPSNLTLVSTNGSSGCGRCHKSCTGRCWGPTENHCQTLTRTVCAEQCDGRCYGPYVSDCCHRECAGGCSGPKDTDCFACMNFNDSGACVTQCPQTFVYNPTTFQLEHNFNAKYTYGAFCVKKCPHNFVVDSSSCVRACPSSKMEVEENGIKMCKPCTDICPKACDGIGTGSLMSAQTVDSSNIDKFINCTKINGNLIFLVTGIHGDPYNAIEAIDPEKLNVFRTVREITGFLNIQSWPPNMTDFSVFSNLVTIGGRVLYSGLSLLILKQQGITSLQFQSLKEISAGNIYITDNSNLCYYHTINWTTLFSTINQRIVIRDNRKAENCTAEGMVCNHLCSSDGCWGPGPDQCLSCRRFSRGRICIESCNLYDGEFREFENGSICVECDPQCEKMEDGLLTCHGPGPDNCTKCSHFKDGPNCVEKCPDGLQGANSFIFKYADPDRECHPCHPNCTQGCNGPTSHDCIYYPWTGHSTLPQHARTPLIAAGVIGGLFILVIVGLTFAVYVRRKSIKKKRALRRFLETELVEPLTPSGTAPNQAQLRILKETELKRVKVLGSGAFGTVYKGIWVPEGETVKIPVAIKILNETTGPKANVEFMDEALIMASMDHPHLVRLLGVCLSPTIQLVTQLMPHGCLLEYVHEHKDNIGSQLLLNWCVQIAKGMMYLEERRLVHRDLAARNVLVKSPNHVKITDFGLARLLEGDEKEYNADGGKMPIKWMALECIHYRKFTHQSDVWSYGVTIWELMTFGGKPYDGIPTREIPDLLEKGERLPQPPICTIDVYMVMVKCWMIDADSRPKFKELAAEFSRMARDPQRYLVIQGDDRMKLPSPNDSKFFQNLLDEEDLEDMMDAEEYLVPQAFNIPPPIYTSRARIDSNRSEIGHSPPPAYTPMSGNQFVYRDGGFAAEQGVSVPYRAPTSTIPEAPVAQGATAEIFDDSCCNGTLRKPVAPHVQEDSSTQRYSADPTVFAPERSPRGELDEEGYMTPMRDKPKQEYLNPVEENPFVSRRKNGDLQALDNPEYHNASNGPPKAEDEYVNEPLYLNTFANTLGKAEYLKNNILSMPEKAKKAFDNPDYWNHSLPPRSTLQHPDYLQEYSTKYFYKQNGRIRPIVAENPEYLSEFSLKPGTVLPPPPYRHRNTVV
T2 sequence (Q15303 718-985 limits assumed): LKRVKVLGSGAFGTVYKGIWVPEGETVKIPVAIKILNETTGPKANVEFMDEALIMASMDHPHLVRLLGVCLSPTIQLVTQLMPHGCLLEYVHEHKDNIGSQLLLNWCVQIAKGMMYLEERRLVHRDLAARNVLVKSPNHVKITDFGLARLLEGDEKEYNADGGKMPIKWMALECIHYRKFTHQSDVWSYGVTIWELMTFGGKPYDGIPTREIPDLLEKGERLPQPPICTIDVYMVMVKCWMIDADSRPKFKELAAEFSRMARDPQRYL

Compound | reactivity with EGFR wild type by intact mass [1] | modification of ErbB4 by intact mass [2] | reactivity with EGFR mutant (C797S) by intact mass [3] | inhibition at 0.1 µM ([4]; @ 100 nM) [%] | inhibition at 1 µM ([4]; @ 1 μM) [%] | enzyme inhibition after washout ([5]; A431 cells, 1 μM for 1 hr, washout, EGF stimulation) | type of binding to ErbB1 (irreversible / reversible) ([5]; washout experiment, FIG. 2) | modification of TEC peptide GCLLNFLR in tryptic digest [6]
C=CC(=O)Nc1cccc(Nc2cc(Nc3cccc(Br)c3)ncn2)c1 [I-1, N-{3-[6-(3-bromophenylamino)-pyrimidin-4-ylamino]-phenyl}-2-propenamide] | single site covalent modification | covalent modification of ErbB4 | no significant reactivity | 64 | 86 | maintains enzyme inhibition | irreversibly binds to ErbB1 | 
C=CC(=O)Nc1cccc(Nc2cc(Nc3ccc(Oc4ccccc4)cc3)ncn2)c1 [I-13, N-{3-[6-(4-phenoxyphenylamino)-pyrimidin-4-ylamino]phenyl}-2 propenamide] |  |  |  |  |  |  |  | reaction was complete
